US11771669B2, “Topical composition and delivery system and its use” (SBG MEDICAL TECHNOLOGIES, INC., priority 2012, dated 2023)

Assays:
[1] = animal models, topical; cited from earlier work
acute pain = settings: 34 subjects
Method: As indicated, 10 mL of venous blood was collected throughout the study period, at time intervals likely to capture peak and trough levels (Greenblatt D J et al. (1985). Arch Otolaryngol 111: 2988-3000); (Baumann L S, et al. (2010). J Drugs Dermatol 9: 1500-1504). Each subject provided self-rated pain evaluations at those same time intervals, focusing on pain at the identified site of acute pain and of drug application, using the 1-10 Visual Analog Scale (VAS) (Meier T, et al. (2003). Pain 106: 151-158).
The central data used to describe efficacy was the 10-point VAS. While this measure is subjective, the study subjects were requested specifically to be consistent in their pain estimates.

rat cornea = settings: topical application onto the rat cornea, cited from earlier work

## methylsulfonylmethane [MSM]
[1]
  Toxicity when administered topically (in words): very low toxicity

## CCN(CC)CC(=O)Nc1c(C)cccc1C [lidocaine, 2-(diethylamino)-N-(2,6-dimethylphenyl)acetamide]
Acute pain; doses at 0 and 4 h
  Number of subjects with maximum pain relief at the 1 hour point: 9 subjects
  Subjects whose time elapsed to reach maximal pain reduction was 1 h: 27%
  Subjects whose time elapsed to reach maximal pain reduction was 3 h: 21%
  Subjects whose time elapsed to reach maximal pain reduction was 5 h: 18%
  Subjects whose time elapsed to reach maximal pain reduction was 7 h: 9%
  Subjects whose time elapsed to reach maximal pain reduction was 9 h: 12%
  Subjects whose time elapsed to reach maximal pain reduction was 11 h: 6%
Acute pain; maximal pain reduction
  Number of subjects with pain relief at 50% or better: 28 of 34
  Subjects with pain reduction of 50% or greater: 82%

## O=C(O)CN(CCN(CC(=O)O)CC(=O)O)CC(=O)O [EDTA, ethylenediaminetetraacetic acid]
Rat cornea; with MSM
  Ocular uptake of C14 EDTA, applied with MSM: uptake of the C^14 EDTA in all tested ocular tissues
Rat cornea; without MSM
  Ocular penetration of EDTA, without MSM: did not penetrate the eye
